The text below walks through data of the supplement of paper PMC10307832.

Assay in all cases: relative viability (nuclei count vs DMSO), 5 days (fraction); higher = more cells survive
Compound in assay [1]: CC(C)N(CCCNC(=O)Nc1ccc(C(C)(C)C)cc1)C[C@H]1O[C@@H](n2ccc3c(N)ncnc32)[C@H](O)[C@@H]1O + Nc1ncn([C@H]2C[C@H](O)[C@@H](CO)O2)c(=O)n1 [Decitabine] (partner 2 µM)
The essentials: (§1)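 Relative viability equals treated-well nuclei counts divided by vehicle-well nuclei counts. Counts came from 4× images of lung cancer cell lines grown in 1536-well plates for 5 days after pin-tool dosing on the day after seeding. Dosing used one drug alone or a fixed anchor-drug dose plus five library-drug doses (not always all listed) in √10 steps, and values are medians of duplicate plates.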

Compound in assay [2]: CC(C)=CC[C@@H](O)C1=CC(=O)c2c(O)ccc(O)c2C1=O [Shikonin] + O=C(CCCCCCC(=O)Nc1ccccc1)NO [Vorinostat] (partner 1 µM)
The essentials:
as §1

Compound in assay [3]: CC(C)N(CCCNC(=O)Nc1ccc(C(C)(C)C)cc1)C[C@H]1O[C@@H](n2ccc3c(N)ncnc32)[C@H](O)[C@@H]1O + Cc1nc(Nc2ncc(C(=O)Nc3c(C)cccc3Cl)s2)cc(N2CCN(CCO)CC2)n1 [Dasatinib] (partner 0.075 µM)
The essentials: as §1

Compound in assay [4]: CC(C)N(CCCNC(=O)Nc1ccc(C(C)(C)C)cc1)C[C@H]1O[C@@H](n2ccc3c(N)ncnc32)[C@H](O)[C@@H]1O + O=C(CCCCCCC(=O)Nc1ccccc1)NO [Vorinostat] (partner 1 µM)
The method in brief: as §1

Regarding NCI-H522, the relative viability in assay [1] (first compound 0.08 µM) worked out at 0.64; in assay [1] (first compound 0.253 µM), 0.737; in assay [1] (first compound 0.8 µM) it was 0.71; in assay [1] (first compound 2.53 µM) it was 0.729; in assay [1] (first compound 8 µM), 0.696; in assay [2] (first compound 0.01 µM) it was 0.875. Moreover, the relative viability was 1 in assay [2] (first compound 0.1 µM); 0.903 in assay [2] (first compound 0.3162 µM); 0.958 in assay [2] (first compound 1 µM); 0.888 in assay [3] (first compound 0.08 µM); 0.839 in assay [3] (first compound 0.253 µM); 0.896 in assay [3] (first compound 0.8 µM). In addition, the relative viability came out at 0.839 in assay [3] (first compound 2.53 µM); 0.809 in assay [3] (first compound 8 µM); 0.771 in assay [4] (first compound 0.08 µM); 0.801 in assay [4] (first compound 0.253 µM); 0.697 in assay [4] (first compound 0.8 µM); 0.858 in assay [4] (first compound 2.53 µM). The relative viability in assay [4] (first compound 8 µM) was found to be 0.82.

Regarding NCI-H1395, the relative viability in assay [1] (first compound 0.08 µM) worked out at 0.711; in assay [1] (first compound 0.253 µM), 0.704; in assay [1] (first compound 0.8 µM) it was 0.76; in assay [1] (first compound 2.53 µM), 0.748; in assay [1] (first compound 8 µM) it was 0.662; in assay [2] (first compound 0.01 µM), 0.675. The relative viability is 0.705 in assay [2] (first compound 0.1 µM); 0.695 in assay [2] (first compound 0.3162 µM); 0.938 in assay [2] (first compound 1 µM); 0.471 in assay [3] (first compound 0.08 µM); 0.433 in assay [3] (first compound 0.253 µM); 0.392 in assay [3] (first compound 0.8 µM). Besides, the relative viability came to 0.441 in assay [3] (first compound 2.53 µM); 0.463 in assay [3] (first compound 8 µM); 0.727 in assay [4] (first compound 0.08 µM); 0.58 in assay [4] (first compound 0.253 µM); 0.427 in assay [4] (first compound 0.8 µM); 0.638 in assay [4] (first compound 2.53 µM). Moreover, in assay [4] (first compound 8 µM), the relative viability amounted to 0.786.

NCI-H358: the relative viability was 0.233 in assay [1] (first compound 0.08 µM); 0.187 in assay [1] (first compound 0.253 µM); 0.212 in assay [1] (first compound 0.8 µM); 0.214 in assay [1] (first compound 2.53 µM); 0.189 in assay [1] (first compound 8 µM); 0.999 in assay [2] (first compound 0.01 µM). For the same cell line, the relative viability in assay [2] (first compound 0.1 µM) was 0.67; in assay [2] (first compound 0.3162 µM) it was 0.856; in assay [2] (first compound 1 µM), 0.573; in assay [3] (first compound 0.08 µM) it was 0.172; in assay [3] (first compound 0.253 µM), 0.158; in assay [3] (first compound 0.8 µM), 0.171. The relative viability is 0.174 in assay [3] (first compound 2.53 µM); 0.165 in assay [3] (first compound 8 µM); 0.725 in assay [4] (first compound 0.08 µM); 0.629 in assay [4] (first compound 0.253 µM); 0.721 in assay [4] (first compound 0.8 µM); 0.714 in assay [4] (first compound 2.53 µM). Further, the relative viability in assay [4] (first compound 8 µM) worked out at 0.613.

For PC-3 [JPC-3], the relative viability in assay [1] (first compound 0.08 µM) came out at 0.766; in assay [1] (first compound 0.253 µM), 0.726; in assay [1] (first compound 2.53 µM) it was 0.799; in assay [1] (first compound 8 µM) it was 0.864; in assay [2] (first compound 0.01 µM), 0.845; in assay [2] (first compound 0.1 µM), 0.792. Further, the relative viability in assay [2] (first compound 0.3162 µM) stood at 0.781; in assay [2] (first compound 1 µM) it was 1.3; in assay [3] (first compound 0.08 µM), 0.921; in assay [3] (first compound 0.253 µM), 0.971; in assay [3] (first compound 0.8 µM), 0.884; in assay [3] (first compound 2.53 µM), 0.892. Also, the relative viability in assay [3] (first compound 8 µM) turned out to be 0.868; in assay [4] (first compound 0.08 µM), 0.813; in assay [4] (first compound 0.253 µM), 0.761; in assay [4] (first compound 2.53 µM) it was 0.741; in assay [4] (first compound 8 µM), 0.695.
